We go through three compounds from patent US10059669B2, “2-amino-3,5-difluoro-3,6-dimethyl-6-phenyl-3,4,5,6-tetrahydropyridines as BACE1 inhibitors for treating alzheimer's disease” (H. Lundbeck A/S, priority 2014, dated 2018).

The target of one assay is BACE1 (Homo sapiens (Human), UniProt P56817). Kind of assay: BACE1 efficacy assay (FRET-based, commercial BACE1 kit). Type of assay: biochemical. Particulars: 10 μM test compound. The protocol: The efficacy assay was performed as a FRET-based assay using a commercially available BACE1 kit (Life Technologies, P2985). 2 μl test compound at 10 μM (final concentration) and 15 μl BACE1 enzyme from the kit (final concentration 3 nM) were preincubated for 15 minutes at room temperature before addition of 15 μl of substrate from the kit (250 nM final concentration) and incubated for additional 90 minutes at room temperature. The assay plate was subsequently read in a Pherastar (Ex540/Em590). The enzyme activity observed in presence of test compound were normalized to the enzyme activity observed in presence of buffer and 10 μM (final concentration) of the high affinity BACE1 reference inhibitor (S)-6-[3-Chloro-5-(5-prop-1-ynyl-pyridin-3-yl)-thiophen-2-yl]-2-imino-3,6-dimethyl-tetra-hydropyrimidin-4-one, respectively. The efficacy of the test compounds was evaluated at 10 μM (final concentration) and defined as the percent inhibition of the enzyme activity using the equation % inhibition=100%−normalized enzyme activity in percent.
Chain of BACE1 (P56817 46-501): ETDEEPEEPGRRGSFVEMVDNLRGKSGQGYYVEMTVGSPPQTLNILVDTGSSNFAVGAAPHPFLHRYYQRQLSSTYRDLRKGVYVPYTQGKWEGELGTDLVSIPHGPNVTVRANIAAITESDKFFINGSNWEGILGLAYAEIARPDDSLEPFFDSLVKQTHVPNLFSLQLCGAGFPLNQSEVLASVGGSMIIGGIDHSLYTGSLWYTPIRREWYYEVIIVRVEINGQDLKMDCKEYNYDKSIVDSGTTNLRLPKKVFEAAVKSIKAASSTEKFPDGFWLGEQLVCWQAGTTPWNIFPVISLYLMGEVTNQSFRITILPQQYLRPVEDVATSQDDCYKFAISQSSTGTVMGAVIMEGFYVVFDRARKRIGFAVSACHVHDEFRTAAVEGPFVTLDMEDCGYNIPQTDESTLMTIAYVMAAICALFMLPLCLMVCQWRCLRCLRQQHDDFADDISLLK

The subject of another assay is Aβ40. The assay is described as follows: Assessment of Aβ levels in rat brain and plasma following BACE1 inhibition (Aβ40 ELISA). Type of assay: in vivo. Particulars: 180 minutes, vs vehicle. The method, then:
Assessment of Aβ Levels in Rat Brain and Plasma Following BACE1 Inhibition. Animals.
All rat care and experimental procedures were approved by Lundbeck Veterinary Staff, according to Danish legislature. The rats were maintained in a barrier facility with a 12/12-h light/dark cycle and ad libitum food and water access.
Young adult Male Sprague Dawley rats of approximately 250 g weight were purchased from Charles River and received 0-30 mg/kg of vehicle (10% HP betaCD+1M MeSO4, pH 2.5) or test compounds (dissolved in vehicle) only by oral gavage (p.o). The compounds are dosed at a volume of 5 ml/kg. Cohorts of 5-10 animals were established for each treatment condition.
At T=180 minutes after initial dosing the animals were stunned and decapitated with a guillotine. Trunk-blood was sampled in EDTA coated tubes after decapitation of the animal. The blood was centrifuged at 2200G at 4° C. for 15 minutes and the plasma was collected and frozen at −80° C. The blood was aliquoted for Aβ ELISA and DMPK analysis. Immediately following sacrifice, the brain was extracted and split into 2 halves. The right hemibrains were snap frozen on dry ice and stored at −80° C. The left half was dissected; with the front forebrain taken for Aβ ELISA and the remainder used for DMPK analysis. These samples were also snap frozen on dry ice and stored at −80° C. until use for analysis.
The cortex samples were thawed slightly on wet ice before they were homogenized with a small volume dispersing instrument (T10 basic ULTRA-TURRAX®) which was set at speed 5 for approximately 5-7 sec. The tissue was processed in a 10 times volume of the weight, for example 100 mg of tissue was homogenized in 1000 μL of Homogenization buffer. Homogenization buffer: 50 ml Milli Q water+50 nM NaCl+0.2% Diethylamin (DEA)+1 tablet of Complete Protease inhibitor cocktail+1 nM 4-(2-aminoethyl) benzenesulfonyl fluoride hydrochloride irreversible serine protease inhibitor (AEBSF).
After homogenization 450 μL aliquots of the samples are collected into a 1.5 ml Eppendorf tube and placed on wet ice, 0.5% NP-40 (50 ul) was added to all samples and then they were incubated on ice for 30 min. After which all samples were sonicated using an Ultrasonic homogenizer with 20 kHz homogeneous sound (SONOPLUS HD2070, Bandelin Electronic) 10 pulse set at 12-13% power to extract all the Aβ species. The samples were then centrifuged (Ole Dich 157 MPRF Micro centrifuge) at 20000G for 20 minutes at 4° C. After centrifugation 285 μL of the supernatant was pipetted into 600 μL microtubes tubes and neutralized with 15 μL of 1M Tris-HCL buffer.
WAKO 294-62501 Human/Rat Abeta amyloid (40) kit was used for all ELISA analyses. 30 μL plasma samples or 30 μL of the cortex supernatants generated as described above were placed in 600 μL microtubes tubes on wet ice. To this 30 μL of 8M Urea (AppliChem A1049, 9025) are added to generate a 2-fold dilution. Both plasma and cortex supernatants are incubated on ice for 30 min. Standard rows were prepared from the standard peptide stock provided in the kit and standard diluent containing 1.6M Urea (200 μL 8M Urea+800 μL of standard diluent) and 0.8M Urea (400 μL 8M Urea+3600 μL Standard diluent). A serial 2-fold dilution of A340 from […] to 0 μmol/L was prepared for the assay.
After incubation with urea, all samples were further diluted by addition of 5 times standard diluent from the Kit. This was done by adding 240 μL Standard Diluent to 60 μL sample/urea mixture, which was then mixed well. 100 μL of each diluted sample was pipetted into designated wells of the ELISA plate in duplicates. The plate was then covered and incubated overnight at 4° C. The following day, the ELISA kit was brought to room temperature before use. The incubated plate was washed 5 times with the 20× washing solution diluted in Milli Q water. 100 μL HRP-conjugate was applied to each well, and the plate was covered and incubates at 4° C. for 1 hr. The wash was repeated again for 5 times. […]
A general note: ELISA stands for enzyme-linked immunosorbent assay.

The term inhibition denotes the relative decrease from the control value, in per cent. `[2H]C([2H])([2H])Oc1ccc(C(=O)Nc2ccc(F)c([C@@]3(C)N=C(N)[C@@](C)(F)C[C@@H]3F)c2)nc1` [Compound 19, N-(3-((2R,3S,5S)-6-amino-3,5-difluoro-2,5-dimethyl-2,3,4,5-tetrahydropyridin-2-yl)-4-fluorophenyl)-5-(methoxy-d3)picolinamide]: on BACE1, the inhibition at 10 µM was found to be 106%. For the same compound, the Aβ40 reduction in the assay with Aβ40 (Brain Rat, 10 mg/kg p.o.) was determined as 56%; in the assay with Aβ40 (Brain Rat, 30 mg/kg p.o.), 66%; in the assay on Aβ40 (Plasma Rat, 10 mg/kg p.o.) it was 49%; with Aβ40 (Plasma Rat, 30 mg/kg p.o.), 53%.
On to `[2H]C([2H])([2H])Oc1cnc(C(=O)Nc2ccc(F)c([C@@]3(C)N=C(N)[C@@](C)(F)C[C@@H]3F)c2)cn1` [Compound 20, N-(3-((2R,3S,5S)-6-amino-3,5-difluoro-2,5-dimethyl-2,3,4,5-tetrahydropyridin-2-yl)-4-fluorophenyl)-5-(methoxy-d3)pyrazine-2-carboxamide], for which the inhibition at 10 µM at BACE1 was 106%. For the same compound, the Aβ40 reduction in the assay with Aβ40 (Brain Rat, 3 mg/kg p.o.) came out at 52%; in the assay with Aβ40 (Plasma Rat, 3 mg/kg p.o.), 64%.
Consider `COc1ccc(C(=O)Nc2ccc(F)c([C@@]3(C)N=C(N)[C@@](C)(F)C[C@@H]3F)c2)nc1` [Compound 3, N-(3-((2R,3S,5S)-6-amino-3,5-difluoro-2,5-dimethyl-2,3,4,5-tetrahydropyridin-2-yl)-4-fluorophenyl)-5-methoxypicolinamide], for which the inhibition at 10 µM against BACE1 is 102%. For the same compound, the Aβ40 reduction in the assay on Aβ40 (Brain Rat, 10 mg/kg p.o.) is reported as 35%; in the assay on Aβ40 (Brain Rat, 30 mg/kg p.o.) it was 61%; in the assay with Aβ40 (Plasma Rat, 10 mg/kg p.o.), 24%; in the assay with Aβ40 (Plasma Rat, 30 mg/kg p.o.), 53%.
